pEC50: −log10 of the molar value. Where two headings read alike, the source gives them in different places. Each block holds one compound with its values, some of them ahead of it.
Experiments:
[1] = molecular target: T1, human β3 adrenergic receptor (Homo sapiens, UniProt P13945); test: β3AR-cAMP functional assay in CHO cells stably transfected with cloned β3-adrenergic receptor (LANCE); assay type: cell-based
T1 construct: stably transfected with the cloned β-adrenergic receptor (β1, β2 or β3); expressed in transfected cells; host or cells: Chinese hamster ovary (CHO) cells, stably transfected
Protocol: Functional Assay: cAMP production in response to ligand is measured according to Barton, et al. (1991, Agonist-induced desensitization of D2 dopamine receptors in human Y-79 retinoblastoma cells. Mol. Pharmacol. […]) modified as follows. cAMP production is measured using a homogenous time-resolved fluorescence resonance energy transfer immunoassay (LANCE™, Perkin Elmer) according to the manufacture's instructions. Chinese hamster ovary (CHO) cells, stably transfected with the cloned β-adrenergic receptor (β1, β2 or β3) are harvested after 3 days of subculturing. Harvesting of cells is done with Enzyme-free Dissociation Media (Specialty Media). Cells are then counted and resuspended in assay buffer (Hank's Balanced salt solution supplemented with 5 mM HEPES, […]) containing a phosphodiesterase inhibitor (IBMX, 0.6 mM). The reaction is initiated by mixing 6,000 cells in 6 μL with 6 μL Alexa Fluor labeled cAMP antibody (LANCE™ kit) which is then added to an assay well containing 12 μL of compound (diluted in assay buffer to 2× final concentration). The reaction proceeds for 30 minutes at room temperature and is terminated by the addition of 24 ul detection buffer (LANCE™ kit). The assay plate is then incubated for 1 hour at room temperature and time-resolved fluorescence measured on a Perkin Elmer Envision reader or equivalent. The unknown cAMP level is determined by comparing fluorescence levels to a cAMP standard curve.
The non-selective, full agonist […] ligand isoproterenol is used at all three receptors to determine maximal stimulation. The human β3 adrenergic receptor (AR) selective ligand (S)—N-[4-[2-[[2-hydroxy-3-(4-hydroxyphenoxy)propyl]amino]ethyl]-phenyl]-4-iodobenzenesulfonamide is used as a control in all assays. Isoproterenol is titrated at a final concentration in the assay of 10^−10 M to 10^−5 M and the selective ligand (S)—N-[4-[2-[[2-hydroxy-3-(4-hydroxyphenoxy)propyl]amino]ethyl]phenyl]-4-iodobenzenesulfonamide is titrated at the β3 receptor at concentration of 10^−10 M to 10^−5 M. Unknown ligands are titrated at all 3 β-adrenergic receptor subtypes at a final concentration in the assay of 10^−10 M to 10^−5 M to determine the EC50. The EC50 is defined as the concentration of compound that gives 50% activation of its own maximum.

[2] = molecular target: T1, human β3 adrenergic receptor; test: as above; assay type: cell-based; settings: Table 1; determined with β3AR-cAMP assay, given as ranges; read-out: Human β3 Binding
β3AR = molecular target: T2, β3AR (Rattus norvegicus, UniProt P26255); settings: rats, intravenous administration, cited from earlier work
T2 construct: Following intravenous administration to rats; host or cells: live rats (endogenous receptor, bladder)

[3] = Table 2, Beta-3 agonist in vitro functional assay, given as ranges, read-out: Human β3 Agonist Functional Activity
[4] = cAMP production, CHO cells expressing human β3 AR, read-out: human β3 functional activity

T1 sequence (P13945 whole entry): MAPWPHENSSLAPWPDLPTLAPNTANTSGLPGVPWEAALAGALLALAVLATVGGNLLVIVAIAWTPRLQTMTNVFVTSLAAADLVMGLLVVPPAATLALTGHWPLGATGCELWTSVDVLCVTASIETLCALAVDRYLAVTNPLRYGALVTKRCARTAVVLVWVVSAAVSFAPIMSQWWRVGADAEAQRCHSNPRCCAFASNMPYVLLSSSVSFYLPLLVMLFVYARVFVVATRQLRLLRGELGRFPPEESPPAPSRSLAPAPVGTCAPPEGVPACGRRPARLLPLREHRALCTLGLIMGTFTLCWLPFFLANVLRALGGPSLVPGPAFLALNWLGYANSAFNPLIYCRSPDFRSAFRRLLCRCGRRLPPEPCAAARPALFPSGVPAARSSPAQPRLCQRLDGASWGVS
T2 sequence (P26255 whole entry): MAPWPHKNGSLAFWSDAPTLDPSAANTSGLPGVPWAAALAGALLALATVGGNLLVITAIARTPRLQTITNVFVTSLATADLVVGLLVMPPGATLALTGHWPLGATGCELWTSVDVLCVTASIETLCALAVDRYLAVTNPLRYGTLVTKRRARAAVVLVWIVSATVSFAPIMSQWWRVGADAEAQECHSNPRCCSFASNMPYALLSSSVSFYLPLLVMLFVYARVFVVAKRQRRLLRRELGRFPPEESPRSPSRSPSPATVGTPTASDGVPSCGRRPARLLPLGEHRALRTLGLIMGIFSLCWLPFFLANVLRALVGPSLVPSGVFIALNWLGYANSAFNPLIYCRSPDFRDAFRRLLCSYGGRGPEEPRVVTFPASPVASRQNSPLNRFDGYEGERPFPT

pEC50 [1, 3]: 7.00 to 7.96
SMILES: O=C(c1ccc(C[C@@H]2CC[C@H]([C@H](O)c3ccccc3)N2)cn1)N1C[C@@H]2[C@H](C1)[C@H]2c1nnnn1CC(F)(F)F [Example 10]

pEC50 [2]: 7.00 to 7.96
SMILES: O=C(Cc1nnc(-c2ccccc2)[nH]1)Nc1ccc(C[C@@H]2CC[C@H]([C@H](O)c3ccccc3)N2)cn1 [Example 4, N-[5-([(2S, 5R)-5-[(R)-hydroxy(phenyl)methyl]pyrrolidin-2-yl}methyl)pyridin-2-yl]-2-(5-phenyl-4H-1,2,4-triazol-3-yl)acetamide]

pEC50 [1, 4]: 7.00 to 7.96
SMILES: O=C(c1ccc(C[C@@H]2CC[C@H]([C@H](O)c3ccccc3)N2)cn1)N1C[C@@H]2C(n3cnnn3)[C@@H]2C1 (stereo partly drawn) [Example 6, (R)-phenyl[(2R,5S)-5-[(6-{[(1R,5S,6S)-6-(1H-tetrazol-1-yl)-3-azabicyclo[3.1.0]hex-3yl]carbonyl}pyridin-3-yl)methyl]pyrrolidine-2-yl]methanol]

SMILES: C[C@H](Cc1ccc2c(c1)OC(C(=O)[O-])(C(=O)[O-])O2)NC[C@H](O)c1cccc(Cl)c1.[Na+].[Na+] [CL316243]
bladder pressure (β3AR): reduces bladder pressure
bladder capacity (cystometric studies) (β3AR; prolongation of micturition interval without increasing residual urine volume): increases bladder capacity

pEC50 [1, 3]: 7.00 to 7.96
SMILES: O=C(c1ccc(C[C@@H]2CC[C@H]([C@H](O)c3ccccc3)N2)cn1)N1C[C@@H]2[C@H](C1)[C@H]2c1nnco1 [Example 11, (R)-{(2R, 5S)-5-[(6-{[6-(1,3,4-oxadiazol-2-yl)-3-azabicyclo[3.1.0]hex-3-yl]carbonyl}pyridin-3-yl)methyl]pyrrolidin-2-yl)(phenyl)methanol]

pEC50 [1, 3]: > 8.00
SMILES: O=C(c1ccc(C[C@@H]2CC[C@H]([C@H](O)c3ccccc3)N2)cn1)N1C[C@@H]2[C@H](C1)[C@H]2c1nnc(-c2cnccn2)o1 [Example 13, (R)-phenyl{(2R, 5S)-5-[(6-{[6-(5-pyrazin-2-yl-1,3,4-oxadiazol-2-yl)-3-azabicyclo[3.1.0]hex-3-yl]carbonyl}pyridin-3-yl)methyl]pyrrolidin-2-yl)methanol]

pEC50 [1, 3]: 7.00 to 7.96
SMILES: O=C(c1ccc(C[C@@H]2CC[C@H]([C@H](O)c3ccccc3)N2)cn1)N1CCC2(CCOC2=O)CC1 [Example 8, 8-{[5-({(2S, 5R)-5-[(R)-hydroxy(phenyl)methyl]pyrrolidin-2-yl}methyl)pyridin-2-yl]carbonyl}-2-oxa-8-azaspiro[4.5]decan-1-one]

pEC50 [1, 3]: 7.00 to 7.96
SMILES: O=C(c1ccc(C[C@@H]2CC[C@H]([C@H](O)c3ccccc3)N2)cn1)N1CCN(Cc2nnn(CC(F)(F)F)n2)CC1 [Example 14, (R)-phenyl[(2R, 5S)-5-({6-[(4-{[2-(2,2,2-trifluoroethyl)-2H-tetrazol-5-yl]methyl}piperazin-1-yl)carbonyl]pyridin-3-yl}methyl)pyrrolidin-2-yl]methanol]

pEC50 [1, 3]: 7.00 to 7.96
SMILES: CCc1nnc([C@H]2[C@@H]3CN(C(=O)c4ccc(C[C@@H]5CC[C@H]([C@H](O)c6ccccc6)N5)cn4)C[C@@H]32)o1 [Example 12, (R)-{(2R, 5S)-5-[(6-{[6-(5-ethyl-1,3,4-oxadiazol-2-yl)-3-azabicyclo[3.1.0]hex-3-yl]carbonyl}pyridin-3-yl)methyl]pyrrolidin-2-yl)(phenyl)methanol]

pEC50 [1, 4]: 6.00 to 7.00
SMILES: O=C(c1ccc(C[C@@H]2CC[C@H]([C@H](O)c3ccccc3)N2)cn1)N1CCN(Cc2ccccn2)CC1 [Example 7, (R)-phenyl[(2R,5S)-5-[(6-{[4-(pyridin-2-ylmethyl)piperazin-1-yl]carbonyl}pyridin-3-yl)methyl]pyrrolidin-2-yl]methanol]

pEC50 [1, 3]: 7.00 to 7.96
SMILES: Cn1nnnc1[C@H]1[C@@H]2CN(C(=O)c3ccc(C[C@@H]4CC[C@H]([C@H](O)c5ccccc5)N4)cn3)C[C@@H]21 [Example 9, (R)-{(2R, 5S)-5-[(6-{[6-(1-methyl-1H-tetrazol-5-yl)-3-azabicyclo[3.1.0]hex-3-yl]carbonyl}pyridin-3-yl)methyl]pyrrolidin-2-yl)(phenyl)methanol]

pEC50 [1, 4]: 6.00 to 7.00
SMILES: O=C(c1ccc(C[C@@H]2CC[C@H]([C@H](O)c3ccccc3)N2)cn1)N1CCC(c2nnnn2CC(F)(F)F)CC1 [Example 5, (R)-Phenyl-(2R,5S)-5-{[6-({4-[1-(2,2,2-trifluoroethyl)-1H-tetrazol-5-yl]piperidin-1-yl}carbonyl-pyridin-3-yl]methyl}pyrrolidin-2-yl)methanol]

pEC50 [1, 4]: 7.69
SMILES: O=C(Nc1ccc(C[C@@H]2CC[C@H]([C@H](O)c3ccccc3)N2)cn1)[C@@H]1CCc2scnc21 [Example 1]

pEC50 [2]: 6.00 to 7.00
SMILES: O=C(Cn1ncccc1=O)Nc1ccc(C[C@@H]2CC[C@H]([C@H](O)c3ccccc3)N2)cn1 [Example 3, N-[5-({(2S, 5R)-5-[(R)-hydroxy(phenyl)methyl]pyrrolidin-2-yl}methyl)pyridin-2-yl]-2-(6-oxopyridazin-1(6H)-yl)acetamide]

pEC50 [2]: 7.00 to 7.96
SMILES: O=C(Nc1ccc(C[C@@H]2CC[C@H]([C@H](O)c3ccccc3)N2)cn1)C1CCc2nccc(=O)n21 (stereo partly drawn) [Example 2, N-[5-({(2S, 5R)-5-[(R)-hydroxy(phenyl)methyl]pyrrolidin-2-yl}methyl)pyridin-2-yl]-4-oxo-4,6,7,8-tetrahydropyrrolo[1,2-a]pyrimidine-6-carboxamide]

Source: patent US9186354B2, “Pyrrolidine derived β3 adrenergic receptor agonists” (Merck Sharp & Dohme Corp., priority 2010, dated 2015)
